{"source": "patent US11491155B2", "about": "“Salt of a pyrimido[6,1-A]isoquinolin-4-one compound” (VERONA PHARMA PLC, priority 2015, dated 2022)", "type_in_all_cases": "physicochemical", "key": {"[1]": {"assay": "Intrinsic dissolution of compressed tablet, pH 7.0, 37° C. (Sirius inForm)", "conditions": "for Mass of salt (μg) dissolved after 2 hours, Average / Mass of salt (μg) dissolved after 2 hours, Test 1 / Mass of salt (μg) dissolved after 2 hours, Test 2: pH 7.0, 0.15 M NaCl, 37° C.", "procedure,_shortened": "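Compressed 3 mm tablet (~10 mg, 100 kg load), one face exposed, dissolved in pH 7.0 aqueous medium (0.15 M NaCl, 0.01 M acetate/phosphate buffer) at 37° C., stirred at 100 rpm for 2 h. UV absorbance (<1.3) converted to dissolved weight via pH-dependent molar extinction coefficients.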"}, "[2]": {"assay": "Thermal manipulation (isothermal 105° C., thermal cycle; TGA/DSC/XRPD)", "procedure": "Differential Scanning calorimetry (DSC)—DSC data were collected on a PerkinElmer Pyris 4000 DSC equipped with a 45 position sample holder. The instrument was verified for energy and temperature calibration using certified indium. A predefined amount of the sample, 0.5-3.0 mg, was placed in a pin holed aluminium pan and heated at 20° C.·min^−1 from 30 to 350° C., or varied as experimentation dictated. A purge of dry nitrogen at 60 ml·min^−1 was maintained over the sample. The instrument control, data acquisition and analysis were performed with Pyris Software v9.0.1.0203.\nThermo-Gravimetric Analysis (TGA)—TGA data were collected on a PerkinElmer Pyris 1 TGA equipped with a 20 position auto-sampler. The instrument was calibrated using a certified weight and certified Alumel and Perkalloy for temperature. A predefined amount of the sample, 1-5 mg, was loaded onto a pre-tared aluminium crucible and was heated at 20° C.·min^−1 from ambient temperature to 400° C. A nitrogen purge at 20 ml·min^−1 was maintained over the sample. The instrument control, data acquisition and analysis were performed with Pyris Software v9.0.1.0203.\n(§1) The nature of the hydration and a preliminary examination of salt robustness/polymorphism was assessed by thermal manipulation using ThermoGravimetric Analysis (TGA) and Gravimetric Vapor Soprtion (GVS)."}, "[3]": {"assay": "Behaviour to humidity by Gravimetric Vapour Sorption (GVS)", "conditions": "for Behaviour to humidity: GVS, 0-90% humidity, 25° C.; for water adsorbed: up to 90% humidity", "procedure": "Gravimetric Vapour Sorption—Sorption isotherms were obtained using a Hiden Isochema moisture sorption analyser (model IGAsorp), controlled by IGAsorp Systems Software V6.50.48. The sample was maintained at a constant temperature (25° C.) by the instrument controls. The humidity was controlled by mixing streams of dry and wet nitrogen, with a total flow of 250 ml·min^−1. The instrument was verified for relative humidity content by measuring three calibrated Rotronic salt solutions (10-50-88%). The weight change of the sample was monitored as a function of humidity by a microbalance (accuracy+/−0.005 mg). A defined amount of sample was placed in a tared mesh stainless steel basket under ambient conditions. A full experimental cycle typically consisted of three scans (sorption, desorption and sorption) at a constant temperature (25° C.) and 10% RH intervals over a 0-90% range (60 minutes for each humidity level).\nas §1"}, "[4]": {"assay": "Stability assessment of RPL554 and salts: lactose powder blends (70° C., seven days)", "conditions": "after storage at both room and elevated (70° C.) temperatures, 7 days", "procedure": "A validated HPLC method (Onyx-Scientific, Final product testing monograph for RPL554) for the determination of chemical purity by HPLC was used.\nThe following chromatography conditions were used: Column: Waters X Bridge phenyl, 3.5 μm, 150×4.6 mm, (Part number 186003335); Diluent: Acetonitrile:Water (50:50, v/v); Mobile Phase: A—Purified Water:Trifluoroacetic acid (100:0.1); B—Acetonitrile:Trifluoroacetic acid (100:0.1); Flow Rate: 1.0 mL/min; Injection Volume: 10 μl; Detection: UV @ 254 nm; Column Temperature: 30° C.; Post Run: 5 min; Gradient: [Time (min): % A:% B]: [0: 95:5], [2: 95:5]; [15: 5:95], [20: 5:95], [22: 95:5].\nSamples of 1% w/w RPL554 free base or salt variants: lactose blends were prepared and stored at elevated temperature (70° C.) for seven days, control samples were stored at ambient conditions and protected from light on the laboratory bench. All samples (approximately 0.5 g) were accurately weighed into screw cap glass scintillation vials (20 mL). For storage at elevated temperature samples were placed in an oven at 70° C. protected from light. Control sample vials were capped, protected from light and stored on the bench for 7 days.\nIn addition, to the RPL554 and salt variant blends, samples of lactose alone were also stored at the elevated temperature condition (control samples at ambient). The lactose only samples served as baseline data for the HPLC analysis. […]"}, "[5]": {"conditions": "listed as hydrochloride salt, hydrochloride"}, "[6]": {"conditions": "listed as ethane-1,2-disulfonate salt"}}, "note": "Counter-ions that a name gives are not always drawn.", "data": [{"smiles": "COc1cc2c(cc1OC)-c1c/c(=N\\c3c(C)cc(C)cc3C)n(CCNC(N)=O)c(=O)n1CC2", "note": "[Hydrochloride, RPL554 hydrochloride]", "values": [{"measurement": "Mass of salt (μg) dissolved after 2 hours, Average", "setting": "[1]; [5]", "value": 35.6, "unit": "µg"}, {"measurement": "Mass of salt (μg) dissolved after 2 hours, Test 1", "setting": "[1]; [5]", "value": 31.7, "unit": "µg"}, {"measurement": "Mass of salt (μg) dissolved after 2 hours, Test 2", "setting": "[1]; [5]", "value": 39.4, "unit": "µg"}, {"measurement": "form change by thermal manipulation", "setting": "[2]; below the melt endotherm", "value": "No form change was detected"}, {"measurement": "Thermal cycle", "setting": "[2]; hydrochloride", "value": "Stable form"}, {"measurement": "Behaviour to humidity", "setting": "[3]; [5]", "value": "reversible adsorption and desorption over the humidity range with no hysteresis"}, {"measurement": "water adsorbed", "setting": "[3]; [5]", "value": "up to 2 mole equivalents"}]}, {"smiles": "COc1cc2c(cc1OC)-c1c/c(=N\\c3c(C)cc(C)cc3C)n(CCNC(N)=O)c(=O)n1CC2", "note": "[Sulfate, RPL554 sulfate]", "values": [{"measurement": "dissolution compared with free base / other salts", "setting": "[1]; 2 hour experiments", "value": "higher dissolution than the rest of the salts"}, {"measurement": "dissolution behaviour over 24 hours", "setting": "[1]; 24 hours experiment", "value": "did start to precipitate slowly but still remained highly supersaturated even after 24 hrs"}, {"measurement": "maximum pH change (decrease) during dissolution", "setting": "[1]; nominal start pH 7, listed as sulfate salt", "value": "about 0.15 pH units"}, {"measurement": "Mass of salt (μg) dissolved after 2 hours, Average", "setting": "[1]; listed as sulfate salt", "value": 6205, "unit": "µg"}, {"measurement": "Mass of salt (μg) dissolved after 2 hours, Test 1", "setting": "[1]; listed as sulfate salt", "value": 5910, "unit": "µg"}, {"measurement": "Mass of salt (μg) dissolved after 2 hours, Test 2", "setting": "[1]; listed as sulfate salt", "value": 6500, "unit": "µg"}, {"measurement": "peak area of the RPL554, % of the total areas", "setting": "[4]", "value": 82, "unit": "%"}]}, {"smiles": "COc1cc2c(cc1OC)-c1c/c(=N\\c3c(C)cc(C)cc3C)n(CCNC(N)=O)c(=O)n1CC2", "note": "[Ethane-1,2-disulfonate, RPL554 ethane-1,2-disulfonate]", "values": [{"measurement": "Mass of salt (μg) dissolved after 2 hours, Average", "setting": "[1]; [6]", "value": 28.0, "unit": "µg"}, {"measurement": "Mass of salt (μg) dissolved after 2 hours, Test 1", "setting": "[1]; [6]", "value": 21.1, "unit": "µg"}, {"measurement": "Mass of salt (μg) dissolved after 2 hours, Test 2", "setting": "[1]; [6]", "value": 34.9, "unit": "µg"}, {"measurement": "Behaviour to humidity", "setting": "[3]; [6]", "value": "reversible adsorption and desorption over the humidity range with no hysteresis"}, {"measurement": "water uptake", "setting": "[3]; to 50% humidity", "value": 4, "unit": "mole equivalents"}, {"measurement": "water adsorbed", "setting": "[3]; [6]", "value": "up to 5 mole equivalents"}]}]}
